Experimental data from patent US9045505B2, “Nitric oxide donors” (University of Otago, priority 2006, dated 2015).

Columns and labels:
[1] = tested on: rat liver mitochondria; experiment: Membrane potential-dependent uptake into isolated mitochondria (TPP-selective electrode); type: biochemical; conditions: energized with 10 mM succinate, reversed by FCCP
Experimental: FIG. 8 is a trace showing the uptake of MitoSNAP and MitoNAP by energized mitochondria measured using an ion-selective electrode. For (a) and (b) mitochondria (2 mg protein/ml) were incubated in KCl buffer supplemented with rotenone in a stirred 3 ml chamber thermostatted at 37° C. and shielded from ambient light. An electrode selective for the TPP cation was inserted and calibrated by five sequential 1 μM additions of MitoNAP (a) or MitoSNAP (b). Succinate (10 mM) was then added to energize the mitochondria, followed by the uncoupler FCCP (0.5 μM). Rapid uptake of MitoNAP by energized mitochondria was observed and this was reversed by abolishing the membrane potential with the uncoupler FCCP (a). Energised mitochondria also rapidly accumulated MitoSNAP (b). However, in contrast to MitoNAP, uncoupling apparently led to only partial release of the accumulated MitoSNAP (b). This apparent incomplete release of MitoSNAP on uncoupling is presumably because MitoSNAP is converted to MitoNAP within mitochondria and this generates a different response from the electrode.
Mitochondrial incubations were usually in KCl buffer (120 mM KCl, 10 mM HEPES, 1 mM EGTA, 100 μM N,N-bis(2-bis[carboxymethyl]aminoethyl) glycine (DTPA) and 10 μM neocuproine, pH 7.2) with 10 mM succinate and 4 μg/ml rotenone in the dark at 37° C., unless stated otherwise. An electrode selective for the TPP moiety of MitoSNAP and MitoNAP was made and used as described previously (Asin-Cayuela, J., Manas, A. R., James, A. M., Smith, R. A. & Murphy, M. P. Fine-tuning the hydrophobicity of a mitochondria-targeted antioxidant. FEBS Letts. 571, 9-16 (2004)). Respiration rates were measured in a Clark type O2 electrode (Rank Brothers, UK). To measure GSH and GSSG, mitochondria (1 mg protein/ml) were incubated with 0-10 μM MitoSNO1 or MitoNAP for 10 min, pelleted by centrifugation and the GSH and GSSG contents assessed by the recycling assay (Scarlett, J. L., Packer, M. A., Porteous, C. M. & Murphy, M. P. Alterations to glutathione and nicotinamide nucleotides during the mitochondrial permeability transition induced by peroxynitrite. Biochem. Pharmacol. 52, 1047-1055 (1996)). The measurement of exposed mitochondrial protein thiols is described below.
Rat liver mitochondria (1 mg protein/ml) in KCl buffer was incubated at 37° C. with 5 μM MitoSNO. 1 μM additions of MitoSNO were made sequentially before addition of 10 mM succinate. 200 nM FCCP was then added to uncouple the mitochondria. The concentrations of O2 and MitoSNO in solution were measured simultaneously using a Clark-type O2 electrode in combination with an ion-selective electrode for triphenylphosphonium cation (TPP^+). […] This can be seen in FIG. 3.
When succinate was added, the mitochondria started respiring and set up a Δψ, which caused a decrease in the MitoSNO concentration, as detected by the ion-selective electrode (FIG. 3). When the mitochondria were uncoupled by FCCP, a concomitant increase in the concentration of MitoSNO, or its derivatives, in the medium was detected by the ion-selective electrode. The amount of MitoSNO taken up into the mitochondria from the trace in FIG. 3 corresponds to ˜2.5 μM of the initial external concentration of 5 μM. Therefore 7.5 nmol MitoSNO have been taken up into 3 mg protein, and as the mitochondrial volume is ˜0.5 μl/mg protein (Brown, G. C. and Brand, M. D. Biochem J., 1985, 225, 399-405), the concentration of MitoSNO within mitochondria is ˜5 mM. This represents a 2000 fold concentration relative to the 2.5 μM present in the external medium, and is consistent with a Nernstian uptake of MitoSNO.

[2] = tested on: liver mitochondria; experiment: Metabolism of MitoSNAP by mitochondria (RP-HPLC of supernatant); type: in vitro ADME, rat
Experimental: FIG. 9 is a series of traces and graphs showing membrane potential-dependent MitoSNAP mitochondrial uptake and NO^• generation. (a-d) Liver mitochondria were incubated in KCl medium supplemented with rotenone in a stirred 3 ml chamber and electrodes were used to measure the concentrations of O2 and NO^• simultaneously. Where indicated succinate (10 mM), OxyHb (5 μM) or FCCP (500 nM) were added. For (a) and (b) 2 mg mitochondrial protein/ml and 20 μM MitoSNAP (a) or SNAP (b) were used. For (c) and (d) 0.5 mg mitochondrial protein/ml and 5 μM MitoSNAP were used. There was no effect of 5 μM MitoNAP on respiration or NO^• production. All traces are from typical experiments repeated at least twice. […] Mitochondria were then pelleted by centrifugation (10,000×g) then aliquots of the supernatant (700 μl) were mixed with 700 μl 0.1% TFA and analyzed by RP-HPLC. The amount of MitoSNAP and MitoNAP were calculated as the percentage of their peak areas relative to the sum of both peak areas.
MitoSNAP, MitoNAP and their derivatives were separated by reverse phase HPLC (RP-HPLC) on a C18 column (Jupiter 300 Å, Phenomenex) with a Widepore C18 guard column (Phenomenex), using a Gilson 321 pump. […] Peaks were detected at 220 nm using a Gilson UV/VIS 151 spectrophotometer. […]

[3] = tested on: complex I; experiment: S-nitrosation of bovine heart mitochondrial membranes and complex I; type: biochemical

## CC(=O)NC(C(=O)NCCCCC[P+](c1ccccc1)(c1ccccc1)c1ccccc1)C(C)(C)SN=O.CS(=O)(=O)[O-] (stereo not drawn) [MitoSNAP, [5-(2-acetylamino-3-methyl-3-nitrosothio-butyrylamino)-penty1]-triphenylphosphonium methanesulfonate]
[1]
  uptake by isolated mitochondria: significant Δψ-dependent uptake
[2]; energized mitochondria
  conversion of MitoSNAP to MitoNAP: rapidly consumed
[2]; unenergized mitochondria (FCCP), compared with energized
  conversion of MitoSNAP to MitoNAP: slower
[3]; 75 μM, 5 min
  S-nitrosation of complex I (BN-PAGE, Cy3): complex I was S-nitrosated
[3]; 75 μM, 5 min, mean±SD, n=4
  formation of protein SNOs: 4.8±0.9 nmol protein SNOB/mg protein
[3]; 1 mM GSH
  decrease of SNO content by GSH treatment: ~53%
